# Measured values as given in the supplement of paper PMC10307832.
# Legend:
# Assay in all cases: relative viability (nuclei count vs DMSO), 5 days (fraction); higher = more cells survive
# [1] = system: LCLC-103H
# How it was run: (§1)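 For relative viability, nuclei counts in treated wells were divided by those in vehicle wells. Lung cancer cell lines had been pin-tool dosed in 1536-well plates the day after seeding and cultured for 5 days, then fixed and stained in one step (final 0.05% Triton X-100, 1% formaldehyde, 1 ug/ml Hoechst) and imaged at 4×. Doses were one drug alone or a fixed anchor-drug dose plus five library-drug doses (not always all listed) in √10 steps, and values are duplicate-plate medians.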
# [2] = system: NCI-H2347
# How it was run: as §1
# [3] = system: NCI-H460
# How it was run: as §1
# [4] = system: NCI-H661
# How it was run: as §1
# [5] = system: NCI-H1755
# How it was run: as §1
# [6] = system: NCI-H1563
# How it was run: as §1
# [7] = system: NCI-H2170
# How it was run: as §1
# [8] = system: NCI-H1792
# How it was run: as §1
# [9] = system: SK-MES-1
# How it was run: as §1
# [10] = system: NCI-H1355
# How it was run: as §1
# [11] = system: RERF-LC-KJ
# How it was run: as §1
# [12] = system: NCI-H322M
# How it was run: as §1
# [13] = system: NCI-H3122
# How it was run: as §1
# [14] = system: NCI-H727
# How it was run: as §1
# [15] = system: NCI-H1915
# How it was run: as §1
# [16] = system: NCI-H1651
# How it was run: as §1
# [17] = system: LXF-289
# How it was run: as §1
# [18] = system: NCI-H596
# How it was run: as §1
# [19] = system: NCI-H520
# How it was run: as §1
# [20] = system: NCI-H650
# How it was run: as §1
# [21] = system: PC-14
# How it was run: as §1
# [22] = system: NCI-H441
# How it was run: as §1
# [23] = system: SW 900
# How it was run: as §1
smiles,measurement,setting,value
C=C1C(=O)O[C@@H](CCCCCCCC)[C@@H]1C(=O)O [C-75] + CCNC(=O)c1noc(-c2cc(C(C)C)c(O)cc2O)c1-c1ccc(CN2CCOCC2)cc1 [Luminespib] (partner 0.01 µM),relative viability,[1]; first compound 0.08 µM,0.912
same,relative viability,[1]; first compound 0.253 µM,1.02
same,relative viability,[1]; first compound 0.8 µM,0.83
same,relative viability,[1]; first compound 2.53 µM,0.932
same,relative viability,[1]; first compound 8 µM,0.888
same,relative viability,[2]; first compound 0.08 µM,0.409
same,relative viability,[2]; first compound 0.253 µM,0.474
same,relative viability,[2]; first compound 0.8 µM,0.294
same,relative viability,[2]; first compound 8 µM,0.446
same,relative viability,[3]; first compound 0.08 µM,0.0308
same,relative viability,[3]; first compound 0.253 µM,0.0239
same,relative viability,[3]; first compound 0.8 µM,0.0329
same,relative viability,[3]; first compound 8 µM,0.0319
same,relative viability,[4]; first compound 0.08 µM,0.946
same,relative viability,[4]; first compound 0.253 µM,0.905
same,relative viability,[4]; first compound 0.8 µM,0.899
same,relative viability,[4]; first compound 2.53 µM,0.869
same,relative viability,[4]; first compound 8 µM,0.84
same,relative viability,[5]; first compound 0.08 µM,0.384
same,relative viability,[5]; first compound 0.253 µM,0.489
same,relative viability,[5]; first compound 0.8 µM,0.465
same,relative viability,[5]; first compound 2.53 µM,0.467
same,relative viability,[5]; first compound 8 µM,0.416
same,relative viability,[6]; first compound 0.08 µM,0.498
same,relative viability,[6]; first compound 0.253 µM,0.535
same,relative viability,[6]; first compound 0.8 µM,0.531
same,relative viability,[6]; first compound 2.53 µM,0.483
same,relative viability,[6]; first compound 8 µM,0.557
same,relative viability,[7]; first compound 0.08 µM,0.551
same,relative viability,[7]; first compound 0.253 µM,0.599
same,relative viability,[7]; first compound 0.8 µM,0.785
same,relative viability,[7]; first compound 2.53 µM,0.407
same,relative viability,[7]; first compound 8 µM,0.669
same,relative viability,[8]; first compound 0.08 µM,0.423
same,relative viability,[8]; first compound 0.253 µM,0.484
same,relative viability,[8]; first compound 0.8 µM,0.514
same,relative viability,[8]; first compound 2.53 µM,0.331
same,relative viability,[8]; first compound 8 µM,0.522
same,relative viability,[9]; first compound 0.08 µM,0.756
same,relative viability,[9]; first compound 0.253 µM,0.73
same,relative viability,[9]; first compound 0.8 µM,0.685
same,relative viability,[9]; first compound 2.53 µM,0.652
same,relative viability,[9]; first compound 8 µM,0.552
same,relative viability,[10]; first compound 0.08 µM,0.621
same,relative viability,[10]; first compound 0.253 µM,0.668
same,relative viability,[10]; first compound 0.8 µM,0.641
same,relative viability,[10]; first compound 2.53 µM,0.394
same,relative viability,[10]; first compound 8 µM,0.615
same,relative viability,[11]; first compound 0.08 µM,1.31
same,relative viability,[11]; first compound 0.253 µM,1.22
same,relative viability,[11]; first compound 0.8 µM,1.23
same,relative viability,[11]; first compound 2.53 µM,1.08
same,relative viability,[11]; first compound 8 µM,1.11
same,relative viability,[12]; first compound 0.08 µM,0.928
same,relative viability,[12]; first compound 0.253 µM,1.24
same,relative viability,[12]; first compound 0.8 µM,0.816
same,relative viability,[12]; first compound 2.53 µM,0.879
same,relative viability,[12]; first compound 8 µM,0.829
same,relative viability,[13]; first compound 0.08 µM,0.0952
same,relative viability,[13]; first compound 0.253 µM,0.128
same,relative viability,[13]; first compound 0.8 µM,0.0733
same,relative viability,[13]; first compound 2.53 µM,0.0938
same,relative viability,[13]; first compound 8 µM,0.131
same,relative viability,[14]; first compound 0.08 µM,0.371
same,relative viability,[14]; first compound 0.253 µM,0.358
same,relative viability,[14]; first compound 0.8 µM,0.312
same,relative viability,[14]; first compound 8 µM,0.484
same,relative viability,[15]; first compound 0.08 µM,0.694
same,relative viability,[15]; first compound 0.253 µM,0.768
same,relative viability,[15]; first compound 0.8 µM,0.798
same,relative viability,[15]; first compound 2.53 µM,0.717
same,relative viability,[15]; first compound 8 µM,0.677
same,relative viability,[16]; first compound 0.08 µM,0.817
same,relative viability,[16]; first compound 0.253 µM,0.939
same,relative viability,[16]; first compound 0.8 µM,0.829
same,relative viability,[16]; first compound 2.53 µM,0.672
same,relative viability,[16]; first compound 8 µM,0.934
same,relative viability,[17]; first compound 0.08 µM,0.599
same,relative viability,[17]; first compound 0.253 µM,0.66
same,relative viability,[17]; first compound 0.8 µM,0.671
same,relative viability,[17]; first compound 2.53 µM,0.641
same,relative viability,[17]; first compound 8 µM,0.702
same,relative viability,[18]; first compound 0.08 µM,0.854
same,relative viability,[18]; first compound 0.253 µM,0.968
same,relative viability,[18]; first compound 0.8 µM,0.937
same,relative viability,[18]; first compound 2.53 µM,0.939
same,relative viability,[18]; first compound 8 µM,0.957
same,relative viability,[19]; first compound 0.08 µM,0.233
same,relative viability,[19]; first compound 0.253 µM,0.214
same,relative viability,[19]; first compound 0.8 µM,0.217
same,relative viability,[19]; first compound 2.53 µM,0.208
same,relative viability,[19]; first compound 8 µM,0.331
same,relative viability,[20]; first compound 0.08 µM,0.685
same,relative viability,[20]; first compound 0.253 µM,0.737
same,relative viability,[20]; first compound 0.8 µM,0.818
same,relative viability,[20]; first compound 2.53 µM,0.684
same,relative viability,[20]; first compound 8 µM,0.788
same,relative viability,[21]; first compound 0.08 µM,0.158
same,relative viability,[21]; first compound 0.253 µM,0.171
same,relative viability,[21]; first compound 0.8 µM,0.151
same,relative viability,[21]; first compound 2.53 µM,0.142
same,relative viability,[21]; first compound 8 µM,0.152
same,relative viability,[22]; first compound 0.08 µM,0.329
same,relative viability,[22]; first compound 0.253 µM,0.453
same,relative viability,[22]; first compound 0.8 µM,0.295
same,relative viability,[22]; first compound 2.53 µM,0.518
same,relative viability,[22]; first compound 8 µM,0.305
same,relative viability,[23]; first compound 0.08 µM,0.169
same,relative viability,[23]; first compound 0.253 µM,0.191
same,relative viability,[23]; first compound 0.8 µM,0.163
same,relative viability,[23]; first compound 2.53 µM,0.175
same,relative viability,[23]; first compound 8 µM,0.206
